Reference: US10793520B2, “Sulfonylaminobenzamide compound and pest control agent” (Nippon Soda Co., Ltd., priority 2016, dated 2020)

Each molecule was assayed on Mythimna separata (assay: Efficacy test against Mythimna separata (treated artificial feed)). Conditions: in vivo.
Protocol: Five parts of the compound of the present invention, 93.6 parts of dimethylformamide and 1.4 parts of a polyoxyethylene alkyl aryl ether were mixed together and dissolved to obtain an emulsion (1) containing 5% of the active constituent.
The mortality rate was calculated using the following equation. Mortality rate (%)=(number of dead pests/number of test pests)×100
First, 0.8 g of an artificial feed (Insecta LFS, manufactured by Nosan Corporation) and 1 μl of the emulsion (I) were mixed thoroughly, and 0.2 g of the resulting mixture was placed in each of the treatment areas of a plastic test container (volume: 1.4 ml) to complete preparation of a test feed.
Two second-instar larvae of Mythimna separata were inoculated into each treatment area, and the test container was sealed with a plastic lid. The sealed container was placed in a temperature-controlled room at 25° C., and the mortality rate and the amount of feed consumed were determined on the fifth day. The test was repeated. Further, a test performed under the same conditions, but with the exception of excluding the compound of the present invention from the emulsion (1), was used as a control.
With `COC(=O)c1cc(Br)ccc1NC(=O)c1ccc(C(F)(F)F)cc1NS(=O)(=O)C(F)(F)F` [a-49] the “mortality rate against Mythimna separata, or amount of feed consumed relative to control” value was 100%, or the amount of feed consumed was 10% or less. For `O=C(Nc1ccc([N+](=O)[O-])cc1)c1ccc(C(F)(F)F)cc1NS(=O)(=O)C(F)(F)F` [a-50], the “mortality rate against Mythimna separata, or amount of feed consumed relative to control” value was 100%, or the amount of feed consumed was 10% or less. For `N#Cc1cc(Cl)ccc1NC(=O)c1ccc(C(F)(F)F)cc1NS(=O)(=O)C(F)(F)F` [a-51], the “mortality rate against Mythimna separata, or amount of feed consumed relative to control” value was 100%, or the amount of feed consumed was 10% or less. In the case of `N#Cc1ccc(NC(=O)c2ccc(C(F)(F)F)cc2NS(=O)(=O)C(F)(F)F)c(F)c1` [a-53], the “mortality rate against Mythimna separata, or amount of feed consumed relative to control” value is reported as 100%, or the amount of feed consumed was 10% or less. For `O=C(Nc1ccc(C(F)(F)F)cc1F)c1ccc(C(F)(F)F)cc1NS(=O)(=O)C(F)(F)F` [a-54], the “mortality rate against Mythimna separata, or amount of feed consumed relative to control” value was 100%, or the amount of feed consumed was 10% or less. `O=C(Nc1ccc(Cl)cc1C(F)(F)F)c1ccc(C(F)(F)F)cc1NS(=O)(=O)C(F)(F)F` [a-55] was tested, and the “mortality rate against Mythimna separata, or amount of feed consumed relative to control” value was 100%, or the amount of feed consumed was 10% or less. In the case of `O=C(Nc1ccnc(OCC(F)(F)F)c1)c1ccc(C(F)(F)F)cc1NS(=O)(=O)C(F)(F)F` [a-56], the “mortality rate against Mythimna separata, or amount of feed consumed relative to control” value is reported as 100%, or the amount of feed consumed was 10% or less. For `COC(=O)c1cc(F)ccc1NC(=O)c1ccc(C(F)(F)F)cc1NS(=O)(=O)C(F)(F)F` [a-57], the “mortality rate against Mythimna separata, or amount of feed consumed relative to control” value was 100%, or the amount of feed consumed was 10% or less. `COC(=O)c1cc(C(F)(F)F)ccc1NC(=O)c1ccc(C(F)(F)F)cc1NS(=O)(=O)C(F)(F)F` [a-58] was tested, and the “mortality rate against Mythimna separata, or amount of feed consumed relative to control” value was 100%, or the amount of feed consumed was 10% or less. For `CCOc1cc(C(F)(F)F)ccc1NC(=O)c1ccc(C(F)(F)F)cc1NS(=O)(=O)C(F)(F)F` [a-59], the “mortality rate against Mythimna separata, or amount of feed consumed relative to control” value was 100%, or the amount of feed consumed was 10% or less. In the case of `COC(=O)c1cc(Cl)ccc1NC(=O)c1ccc(C(F)(F)F)cc1NS(=O)(=O)C(F)(F)F` [a-60], the “mortality rate against Mythimna separata, or amount of feed consumed relative to control” value is reported as 100%, or the amount of feed consumed was 10% or less. For `CCOC(=O)c1cc(Br)ccc1NC(=O)c1ccc(C(F)(F)F)cc1NS(=O)(=O)C(F)(F)F` [a-61], the “mortality rate against Mythimna separata, or amount of feed consumed relative to control” value was 100%, or the amount of feed consumed was 10% or less. For `COC(=O)c1cc(I)ccc1NC(=O)c1ccc(C(F)(F)F)cc1NS(=O)(=O)C(F)(F)F` [a-62], the “mortality rate against Mythimna separata, or amount of feed consumed relative to control” value was 100%, or the amount of feed consumed was 10% or less. For `COC(=O)c1ccc(C(F)(F)F)cc1NC(=O)c1ccc(C(F)(F)F)cc1NS(=O)(=O)C(F)(F)F` [a-63], the “mortality rate against Mythimna separata, or amount of feed consumed relative to control” value was 100%, or the amount of feed consumed was 10% or less. In the case of `O=C(Nc1ccc(C(F)(F)F)c(F)c1)c1ccc(C(F)(F)F)cc1NS(=O)(=O)C(F)(F)F` [a-64], the “mortality rate against Mythimna separata, or amount of feed consumed relative to control” value is reported as 100%, or the amount of feed consumed was 10% or less. For `CCC(=O)c1cc(C(F)(F)F)ccc1NC(=O)c1ccc(C(F)(F)F)cc1NS(=O)(=O)C(F)(F)F` [a-66], the “mortality rate against Mythimna separata, or amount of feed consumed relative to control” value was 100%, or the amount of feed consumed was 10% or less. For `COC(=O)c1cc(C#N)ccc1NC(=O)c1ccc(C(F)(F)F)cc1NS(=O)(=O)C(F)(F)F` [a-67], the “mortality rate against Mythimna separata, or amount of feed consumed relative to control” value was 100%, or the amount of feed consumed was 10% or less. In the case of `O=C(Nc1ccc(Br)cc1Cl)c1ccc(C(F)(F)F)cc1NS(=O)(=O)C(F)(F)F` [a-68], the “mortality rate against Mythimna separata, or amount of feed consumed relative to control” value is reported as 100%, or the amount of feed consumed was 10% or less. With `O=C(Nc1ccc(Br)c(Cl)c1)c1ccc(C(F)(F)F)cc1NS(=O)(=O)C(F)(F)F` [a-69] the “mortality rate against Mythimna separata, or amount of feed consumed relative to control” value was 100%, or the amount of feed consumed was 10% or less. With `O=C(Nc1ccc(Cl)c(C(F)(F)F)c1)c1ccc(C(F)(F)F)cc1NS(=O)(=O)C(F)(F)F` [a-70] the “mortality rate against Mythimna separata, or amount of feed consumed relative to control” value was 100%, or the amount of feed consumed was 10% or less.
